# Laboratory results from patent US20130323753A1, “METHODS AND KITS FOR IDENTIFICATION OF ANTI-EXCITOTOXIC COMPOUNDS” (RUTGERS, THE STATE UNIVERSITY OF NEW JERSEY, priority 2007, published 2013).
# Entries after “also recorded” stand apart in the source; their conditions may differ.
# Columns and labels:
# [1] = test system: mouse spinal cord neuron cultures; settings: mouse spinal cord neuron cultures treated with UA; cited from earlier work
# EAAT-2 = assay: Western blot of EAAT-2 protein in mixed spinal cord cultures; format: cell-based, rat; settings: UA 100 μM 24 hours, glutamate, or glutamate and UA
# Procedure: (§1) At DIV 7, control and treated mixed spinal cord cultures grown on 35 mm dishes were scraped and protein was harvested in TEEN (25 mM Tris-HCl, pH 7.4, 1 mM EDTA, 1 mM EGTA, 100 mM NaCl) supplemented with 1 mM phenylmethylsulfonyl fluoride (PMSF). Proteins were resolved on 10% SDS-polyacrylamide gels and transferred to PVDF membranes.
# (§2) After blocking with 3% bovine serum albumin (BSA), the membrane was incubated with primary antibodies: anti-EAAT-1 (goat polyclonal antibody from Santa Cruz Inc., 1:500) overnight at 4° C.; anti-EAAT-2 (goat polyclonal antibody from Santa Cruz Inc., 1:500) overnight at 4° C.; or anti-actin (mouse monoclonal antibody from Sigma-Aldrich, 1:2000) for 1 hour at room temperature (RT). After washing, the secondary antibody, horseradish peroxidase linked IgG (anti-goat for EAAT-1 and EAAT-2, anti-mouse for actin), was applied at 1:2000 for one hour at RT. The bands were visualized using the enhanced chemiluminescence (ECL) system (Amersham Biosci.).
# (§3) The results of the Western blot experiments were analyzed with Universal Hood Gel Documentation Systems and Quantity One V4.2.1 software (BIO-RAD).
# (§4) Additional studies examined whether UA affects protein expression of EAAT-1 and EAAT-2. […]
# spinal cord neurons = assay: Neuron survival (MAP-2+ count) in mixed spinal cord cultures grown in SCM, glutamate toxicity; format: cell-based, rat; settings: for glutamate-elicited neuronal cell death, dose dependence: various concentrations of glutamate
# Procedure: Spinal cords were dissected from embryonic day 16 (E16) rat embryos. Meninges were removed, and the cords were dissociated with gentle trituration. Cells were plated at a density of 350 neurons/mm^2.
# (§5) When cells were treated with glutamate, the medium was replaced with solutions of glutamate in Locke's buffer, with or without UA, for 1 hour at 37° C. In control cultures, the medium was replaced with Locke's buffer. After 1 hour, glutamate solutions were changed to SCM or NB and UA was added at the same concentration. In all cases, same amount of Locke's buffer was added to control as vehicle. When the cultures were treated with Sin-1, the drug was added directly to the medium with or without UA, and the same amount of PBS and Locke's buffer were added to control as vehicle. In all cases, cells were incubated for another 24 hours at 37° C. before being fixed or harvested.
# (§6) Cells were fixed with 4% paraformaldehyde for 30 minutes at room temperature. After washing with PBS, the cultures were incubated with anti-MAP-2 (1:500), anti-GFAP (1:1000), anti-CNPase (1:500), anti-vimentin (1:1000) or anti-CD11 (1:500) for 2 hours at room temperature. Positive cells were then visualized with Cy2 anti-mouse secondary antibodies.
# (§7) For each well, pictures were taken for 10 random fields at a magnification of 100×. Cell number (as indicated by the appropriate immunostain) in each of the 10 pictures was counted by an experimenter blind to the condition. Cell numbers in control and treated groups were compared with one-way analysis of variance (ANOVA) using the Instat software program (Graph Pad).
# Glutamate is the major physiological agent that mediates cell death after spinal cord injury. To examine the survival of spinal cord neurons in an in vitro model of SCI, mixed cell cultures derived from embryonic 16 (E16) rat spinal cords were treated with a range of concentrations of glutamate. These cells were grown in serum-containing medium (SCM) for 6 days (DIV 6) before being treated with various concentrations of glutamate for 1 hour. The brief exposure to high levels of glutamate mimics its temporary up-regulation after SCI. After glutamate was removed, cells were kept in SCM for another 24 hours before the cultures were fixed and immunostained. The numbers of surviving neurons were monitored with immunohistochemical labeling of MAP-2, a marker for neurons.
# To determine whether UA can be used to prevent glutamate toxicity, initial experiments monitored the effects of UA on spinal cord neuron survival during basal conditions. DIV 6 cultures were treated with different concentrations of UA for 24 hours before being fixed and immunostained, and the numbers of neurons were counted. […] The results were derived from 2 independent experiments (n=6).
# Further experiments were designed to reveal if UA could reduce neuronal cell death after glutamate exposure. Cells were treated with 500 μM glutamate with or without various concentrations of UA. UA was applied with glutamate and the same concentration of UA was added after the removal of glutamate. […] With high concentrations of UA, glutamate-promoted neuronal cell death was abolished (FIG. 3B). The results were derived from 6 independent experiments (n=12).
# [2] = test system: pure spinal cord neuron cultures; assay: Neuron survival (MAP-2+ count) in pure spinal cord neuron cultures, glutamate toxicity; format: cell-based, rat; settings: for neuron loss: 1 hour
# Procedure: (§8) To grow pure spinal neuron cultures, SCM was changed to Neurobasal medium (NB; Neurobasal medium (Gibco) supplemented with B-27, penicillin, and streptomycin) at 24 hours after plating. After an additional 24 hours, cytosine arabinoside (Ara-C, 5 μM) was added to these cultures for 3 days after which the Ara-C containing media was changed to fresh NB media. Cells were treated 24 hours later.
# as §5, §6, §7
# To address this question, pure spinal cord neuron cultures were established. Twenty four hours after plating in SCM, SCM was changed to NB medium, which optimizes neuronal growth. Ara-C (5 μM) was added to the cultures after another 24 hours to eliminate the glial populations. The medium was changed after 3 days, and cells were treated 24 hours later. This procedure eliminated non-neuronal cell types in the cultures with only neurons surviving.
# To determine the sensitivity of pure neuronal and mixed cultures to glutamate, pure spinal cord neuron cultures were established, and after 6 days, these cells were treated with glutamate for 1 hour. Cells were fixed after 24 hours and stained with anti-MAP-2 antibody. (A) Control cultures and cells treated with 2, 10, and 500 μM glutamate are illustrated. […] Results were derived from 3 independent experiments (n=7). ***p<0.001 by nonparametric ANOVA followed by Dunn's analysis comparing glutamate treated groups with control. Scale bar, 50 μm.
# To examine whether UA can directly reduce glutamate toxicity in pure neuronal cultures, cells were treated with or without various concentrations of UA either concurrent with or at the termination of exposure to 10 μM glutamate. More specifically, six days after plating, pure spinal cord neuron cultures were treated with glutamate (10 or 500 μM) for 1 hour. UA (100 or 200 μM) was added with and after glutamate treatments. Cells were fixed after 24 hours and numbers of neurons that survived (MAP-2+) were counted. Results shown in FIG. 6 were derived from 2 independent experiments (n=6). ***p<0.001 by nonparametric ANOVA followed by Dunn's analysis for multiple comparisons comparing treated groups with control.
# EAAT-1 = assay: Western blot of EAAT-1 protein in mixed spinal cord cultures; format: cell-based, rat
# Procedure: as §1, §2, §3, §4
# [3] = at normal human levels; cited from earlier work
# spinal cord injury = settings: pre-treatment and concurrent treatment with UA; cited from earlier work
# [4] = test system: spinal cord neurons co-cultured with astroglia; assay: Astroglia re-plated onto pure spinal cord neuron cultures, glutamate toxicity; format: cell-based, rat; settings: glutamate 50 μM 1 hour, then 100 μM UA
# Procedure: Spinal cord astroglial cultures were derived from postnatal day 1 rats using a modified approach from MaCarthy and de Vellis (McCarthy and deVellis 1980). Spinal cords were dissected and dissociated with trituration. Cells were plated in tissue culture flasks at density of 1000 cells/mm^2. Cultures were grown in NM-15 medium (84.4% MEM, 15% Fetal Bovine Serum, 0.6% glucose, supplemented with penicillin and streptomycin) for 9 days. Medium was changed every 3 days. The flasks were then shaken at 400×rpm for 20 minutes before the medium was changed and the floating cells (mostly microglia) were washed away. The flasks were again shaken overnight at 250×rpm to remove attached oligodendrocytes and remaining microglia. Following shaking, floating cells were washed away and medium was changed. Ara-C was added to final concentration of 10 μM to reduce the number of undifferentiated cells. Cultures were grown for 3 additional days before being trypsinized and re-plated at a density of 500 cells/mm^2 in SCM. These cultures only contain GFAP+ and vimentin+ astroglia. Staining for MAP-2 and CNPase were negative.
# To determine the contribution of direct astroglial cell presence to the neuroprotective effects of UA, astroglial cultures were grown for 5 days in SCM before the cells were trypsinized and plated onto pure spinal cord neuron cultures grown for 5 days in vitro (DIV 5). […]
# [5] = test system: pure spinal cord neuron cultures; assay: Sin-1 (peroxynitrite donor) toxicity in pure spinal cord neuron cultures; format: cell-based, rat; settings: Sin-1 250 μM 1-hr
# Procedure: as §8
# THA was dissolved in PBS.
# as §5
# Results were derived from 2 independent experiments (n=6). ***p<0.001 by parametric ANOVA followed by Bonferroni Multiple Comparisons Test.
compound,measurement,setting,value
"O=c1[nH]c(=O)c2[nH]c(=O)[nH]c2[nH]1 [UA, uric acid]",peroxynitrite toxicity,[1],blocked peroxynitrite toxicity
same,EAAT-2 protein expression normalized to actin,EAAT-2,not altered
same,cell loss elicited by glutamate at 100 μM UA,"spinal cord neurons; 100 μM UA, cultures grown in SCM",reversed the cell loss
same,"effect on glutamate toxicity, UA added with and after glutamate","spinal cord neurons; 500 μM glutamate 1 hour, various concentrations of UA, mixed cultures",blocked glutamate toxicity in a dose-dependent manner
same,glutamate-promoted neuronal cell death at high concentrations of UA,"spinal cord neurons; 500 μM glutamate, high concentrations of UA added with and after glutamate, mixed cultures",abolished
same,effect on survival of spinal cord neurons during basal conditions,"spinal cord neurons; UA different concentrations, 24 hours, DIV 6 mixed cultures, no glutamate",no effect on the survival of spinal cord neurons; also recorded: does not affect survival of spinal cord neurons
same,effect of UA itself on neuron survival,[2]; UA 100 or 200 μM,no effect on neuron survival
same,protection against glutamate toxicity,"[2]; UA 100 or 200 μM with and after glutamate (10 or 500 μM, 1 hour)",did not show any protection against glutamate toxicity; also recorded: did not alter the neuron loss; also recorded: did not protect spinal cord neurons against glutamate toxicity; also recorded: does not decrease glutamate toxicity
same,EAAT-1 protein expression normalized to actin,"EAAT-1; UA 100 μM, 24 hours, mixed cultures DIV 6",upregulated
same,"EAAT-1 protein expression, glutamate prior to UA","EAAT-1; glutamate 500 μM 1 hour, then UA 100 μM",did not influence UA actions in increasing EAAT-1 protein expression
same,"carbon dioxide binding with peroxynitrite, times faster than UA",[3],920 times
same,secondary damage,spinal cord injury,reduced secondary damage
same,toxic effects of glutamate in astroglia/neuron combined cultures,[4],blocked the toxic effects of glutamate; also recorded: reinstates the effects of UA in reducing glutamate toxicity
same,"toxicity elicited by Sin-1, UA added after Sin-1",[5]; UA 100 μM added after,did not elicit a reversal of toxicity
same,"toxicity elicited by Sin-1, UA concurrently present",[5]; UA 100 μM concurrent,significantly reversed; also recorded: reduces damages elicited by Sin-1 treatment
N[C@@H](CCC(=O)O)C(=O)O [glutamate],neurons that did not survive,"spinal cord neurons; glutamate 500 μM and 1 mM, 1 hour, mixed cultures, fixed 24 hours later",approximately 40%
same,"glutamate-elicited neuronal cell death, dose dependence","spinal cord neurons; mixed cultures, 1 hour",increased in a dose-dependent manner
same,"glutamate-elicited neuronal cell death, dose dependence","spinal cord neurons; mixed cultures, 1 hour, listed as Glutamate",induces loss of spinal cord neurons in a dose-dependent manner
same,neuron loss,[2]; glutamate 10 μM,more than 80%
same,neuron loss,[2]; glutamate 500 μM,essentially eliminated all neurons; also recorded: almost total neuron elimination
same,"cell loss, dose dependence",[2]; glutamate 1 hour,dose-dependent cell loss
